Experimental findings from publication PMC6685951, “Migration of Bacteriocins Across Gastrointestinal Epithelial and Vascular Endothelial Cells, as Determined Using In Vitro Simulations” (Scientific Reports, 2019) are described below.

Data set [1] has as its system HUVEC. Put plainly: Neutral red viability assay, HUVEC. Type of data set: cell-based, human. To be noted: 24 h, 37 °C. On the procedure:
(§1) For viability and cytotoxicity studies, cells were seeded in 96-well flat-bottom culture plates (1 × 10^4 cells/well). To determine migration of nisin A, plantaricin 423 and bacST4SA across the gastrointestinal epithelial and vascular endothelial barriers, HUVEC and Caco-2 cells were grown on an 8 µm pore size tissue culture insert, as shown in Fig. 1. All cell culture experiments were done in triplicate and have been repeated more than three times.
Cells were treated with different concentrations of the peptides as described for the XTT assay. Sterile ultrapure water was used as control. After incubation at 37 °C for 24 h, neutral red solution was added to the cells (10% of the culture volume). After 4 h of incubation at 37 °C, the medium was removed by aspiration and the cells were rinsed with neutral red fixative. The fixative was removed, the dye solubilized by adding […] and the cells were gently stirred for 10 min on a gyratory shaker. Absorbance readings were recorded at 540 nm and 690 nm, respectively, using a microtiter plate reader. The percentage viability was calculated as the absorbance of treated cells divided by the absorbance of untreated cells (AT/AC × 100).

Data set [2] concerns Caco-2 cells. Put plainly: LDH release assay, Caco-2. As to conditions: 24 h. It counts as cell-based, human. As to the method:
as §1
(§2) HUVEC and Caco-2 cells were exposed to three different concentrations (25 µM, 50 µM and 100 µM) nisin A, plantaricin 423 and bacST4SA and the presence of extracellular LDH determined using the LDH release assay kit. Sterile ultrapure water was used as negative control (referred to as spontaneous LDH activity) and lysis buffer (10X) was used as positive control (referred to as maximum LDH activity). After incubating the cultures in the presence of the peptides for 24 h at 37 °C, culture supernatants were pipetted into a 96-well plate. Reaction mixture was added to the supernatants and plates were incubated at 25 °C for 30 min. Absorbance was measured at 490 nm and 680 nm, respectively. The percentage cytotoxicity was calculated as follows (1):1 %Cytotoxicity=(Compound−treatedLDHactivity)−(SpontaneousLDHactivity)/MaximumLDHactivity−SpontaneousLDHactivity×100

Data set [3] deals with HUVEC. Put plainly: LDH release assay, HUVEC. It counts as cell-based, human. To be noted: 24 h. On the procedure: as §1, §2
(Release of lactate dehydrogenase indicates damage to the cell membrane.)

The test system of data set [4] is L. monocytogenes EGDe. The data set can be described thus: Antimicrobial activity of NHS-fluorescein labelled versus unlabelled peptides (zone sizes). It counts as cell-based, Listeria monocytogenes. As to conditions: 50 µM, 20 µL spotted on LEB agar seeded with L. monocytogenes EGDe, overnight 37 °C. On the procedure:
HPLC purified stock solutions of nisin A, plantaricin 423 and bacST4SA were prepared by dissolving the peptides in sterile ultrapure water. Immediately before conjugating NHS-fluorescein to the peptides, a stock solution of NHS-fluorescein was prepared by dissolving 1 mg of reagent in 100 µL DMF. The amount of NHS-fluorescein to be added to each peptide was calculated using the Eqs (2) and (3):2 mLpeptide×mgpeptide/mLpeptide×mmolpeptide/mgpeptide×15mmolNHS/mmolpeptide=mmolNHS 3 mmolNHS×473.4(MWofNHS)/mmolNHS×100µLDMF/1mg=µLNHS
The calculated concentration of NHS-fluorescein was added to the peptides and incubated on ice for 2 h. Non-reacted NHS-fluorescein was removed by Sep-Pak C18 column chromatography. Plantaricin 423 and bacST4SA were eluted with 60% acetonitrile containing 0.1% TFA and nisin A with 40% acetonitrile containing 0.1% TFA. Peptides were freeze dried and resuspended in sterile ultrapure water. Concentrations of the labelled peptides were determined with the BCA assay and diluted to 50 µM. Labelled peptides were filtered through a 0.45 µm HVLP membrane and spotted (20 µL) onto LEB agar seeded with 1% L. monocytogenes EGDe (OD600 0.1). Plates were incubated overnight at 37 °C and the fluorescent peptides visualised under a UVP 3UV Ultraviolet Lamp. Inhibition zones were measured using ImageJ software and compared to those of non-labelled peptides.

The subject of data set [5] is HUVEC monolayer. Put plainly: Migration across HUVEC monolayer on transmigration inserts. Type of data set: in vitro ADME, human. As to conditions: 3 h. As to the method:
as §1
HUVECs and Caco-2 cells were seeded onto transmigration inserts (Fig. 1) at a cell density of 1 × 10^5 cells/insert (200 µL). Inserts were carefully placed in a 24-well tissue culture plate containing 700 µL cell growth media. […] The integrity of the monolayers was monitored by ensuring trans-epithelial electrical resistance (TEER) readings remained above 300 Ω throughout the experiment (Millicell-ERS volt-ohm meter, Merck)[51],[52],[62]. […] Transmigration inserts containing no monolayer, was used to determine the total fluorescence. Samples were incubated for 3 h while absorbance was measured at 490 nm every 30 min using a microplate reader. Before each reading, inserts were removed and placed into new microplates containing fresh media. […]
The percentage of peptide that attached to, or entered the cells was quantified by subtracting the sum of migrated peptide (eq. 4) and retained peptide (eq. 5) from the total fluorescence. […]

Where a SMILES comes first, the peptide text is derived from it. Bridges are numbered along the chain shown (N, C = ends).

As to `CC(C)C[C@@H]1NC(=O)[C@H](Cc2c[nH]cn2)NC(=O)[C@H](CO)NC(=O)[C@H](C(C)C)NC(=O)[C@H](CO)NC(=O)[C@@H](NC(=O)[C@H](CO)NC(=O)[C@H](Cc2ccccc2)NC(=O)[C@H](C)NC(=O)[C@H](CCC(N)=O)NC(=O)CNC(=O)[C@H](Cc2c[nH]c3ccccc23)NC(=O)[C@H](CC(N)=O)NC(=O)[C@@H](NC(=O)[C@H](CO)NC(=O)[C@@H]2CSSC[C@H](NC(=O)[C@@H](NC(=O)[C@@H](NC(=O)CNC(=O)[C@H](CC(N)=O)NC(=O)CNC(=O)[C@H](Cc3ccc(O)cc3)NC(=O)[C@H](Cc3ccc(O)cc3)NC(=O)[C@@H](N)CCCCN)C(C)C)[C@@H](C)O)C(=O)NCC(=O)N[C@@H](CCCCN)C(=O)N[C@@H](Cc3c[nH]cn3)C(=O)N[C@@H](CO)C(=O)N2)C(C)C)CSSC[C@@H](C(=O)O)NC(=O)[C@H](CCCCN)NC(=O)CNC(=O)[C@H](Cc2c[nH]cn2)NC(=O)CNC(=O)[C@H](Cc2ccccc2)NC(=O)[C@H](CC(N)=O)NC(=O)[C@H](C)NC1=O` [plantaricin 423] (H-KYYGNGVTCGKHSCSVNWGQAFSCSVSHLANFGHGKC-OH; disulfide 9-14, 24-37; N-terminus and C-terminus assumed), the “cell viability (neutral red)” value is “did not cause significant decreases” in data set [1] (25 µM and 50 µM (up to 50 µM)); “slight reduction” in data set [1] (100 µM). The “cytotoxicity level (LDH release)” value in data set [2] (Caco-2, 100 µM, 37 °C, percentage of maximum LDH release (lysis buffer = 100%)) turned out to be 17%; in data set [3] (100 µM, 37 °C, percentage of maximum LDH release (lysis buffer = 100%)), 21%. Besides, the “toxicity (LDH release)” value in data set [2] (Caco-2, concentrations up to 100 µM) is listed as “minimal toxicity”; in data set [3] (concentrations up to 100 µM), “minimal toxicity”. For the same compound, in data set [4], the “decrease in activity of labelled versus unlabelled peptide (antimicrobial zone sizes)” value was 24%. Further, the migrated peptide in data set [5] (HUVEC monolayer on 8 µm pore insert, apical addition, NHS-fluorescein labelled peptide 50 µM, 37 °C, TEER above 300 Ω, read at 490 nm, % of no-monolayer control, triplicate) was 93%. For the same compound, the “percentage attached and/or entered peptide” value in data set [5] (HUVEC, labelled peptide 50 µM, total fluorescence minus migrated and residual peptide) is 0%.
